We go through 13 molecules from PubChem BioAssay (NCI).

Values joined by “and” are separate entries in the source; they are usually repeats but may differ in a detail not shown here. Equal entries are not always repeated.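 Following 48 hours of exposure in 96-well plates, responses at five concentrations were used to interpolate endpoints linearly. GI50: concentration for 50% inhibition of growth. At the TGI there is no net growth.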

Holding throughout (experiment): NCI tumour cell line growth inhibition, 48 h
Assay [1] concerns SR leukemia.
Assay [2] concerns PC-3 prostate.
Assay [3] deals with RXF 393 renal.
The test system of assay [4] is NCI-H226 lung.
In assay [5] the test system is RPMI-8226 leukemia.
Assay [6] relates to M14 melanoma.
Assay [7] concerns SN12C renal.
For assay [8], the system named is SK-MEL-28 melanoma.
The test system of assay [9] is SF-295 CNS.
In assay [10] the test system is SNB-19 CNS.

In the case of `O=C1C2CC[C@@H]3C(=O)C(Cl)(Cl)[C@@H]3CCC2C1(Cl)Cl` (some centres undefined), the TGI in [1] was 70.3 µM; in assay [2], > 100 µM; in assay [3], > 100 µM; in [4], > 100 µM; in assay [5], > 100 µM; in [6] it was > 100 µM. Further, the TGI in [7], in assay [8], in assay [9] and in [10] was > 100 µM each time.
As for `CCc1cc2c(c3c1CCCC3=O)CC1(C2)Cc2cc(CC)c3c(c2C1)C(=O)CCC3`, the TGI is 75.1 µM in assay [1]; > 100 µM in assay [2]; > 100 µM in [3]; > 100 µM in assay [4]; > 100 µM in [5]; > 100 µM in [6]. The TGI in assay [7], in [8], in assay [9] and in [10] was > 100 µM in each case.
With `c1ccc(-c2c(-c3[nH]c4ccccc4c3-c3ccccc3)[nH]c3ccccc23)cc1`, the TGI in assay [1] worked out at 7.84 µM; in [2], 10.6 µM; in assay [3], 3.72 µM; in assay [4], 25.6 µM; in [5], 11.9 µM; in [6], 14.9 µM. Moreover, the TGI in assay [7] was found to be 3.8 µM; in [8], 25.7 µM; in assay [9] it was 14.9 µM; in [10], 19.3 µM.
In the case of `C#CCOC(=O)C(=[N+]=[N-])C(=O)CC(C)C`, the TGI in assay [1], in assay [2], in assay [3], in [4], in assay [5] and in assay [6] was > 10 µM in each case. Also, the TGI in assay [7], in [8], in assay [9] and in assay [10] was > 10 µM in each case.
`COc1ccc(N=Nc2c(N)nn3c(SC)c(C#N)c(N)nc23)cc1`: the TGI in assay [1] was 4.59 µM; in assay [2], 21.5 µM; in assay [3], 19.5 µM; in assay [4] it was 40.7 µM; in [5], 6.28 µM; in assay [6], 25.1 µM. The TGI in assay [7] was 19.1 µM; in assay [8] it was 18.8 µM; in [9], 39.5 µM; in [10], 37.6 µM.
Consider `CC(C)(CN1CCCCC1)C(=O)CC(SCCS(=O)(=O)O)c1ccc(Cl)cc1` (centres undefined), for which the TGI in assay [1] turned out to be 4.82 µM; in [2], 18.1 µM; in assay [3], 9.92 µM; in assay [4] it was 27.9 µM; in assay [5] it was 6.65 µM; in assay [6], 9.19 µM. The TGI is 15.8 µM in [7], 15.8 µM in [9] and 28.9 µM in [10].
`Cc1cc(=O)n2nc(CSc3nnc(Sc4cc(O)ccc4O)s3)sc2n1`: the TGI in assay [1] was > 100 µM; in [2], > 100 µM; in assay [3], > 100 µM; in [4], > 100 µM; in assay [5] it was 61.4 µM; in assay [6], > 100 µM. Besides, the TGI in assay [7], in [8], in [9] and in [10] was > 100 µM in each case.
Take `COc1ccc2c(c1)CC[C@@H]1C2CC[C@]2(C)C(=C=CP(=O)(O)O)CCC12` (some centres undefined): the TGI in assay [1], in assay [2], in assay [3], in assay [4], in [5] and in assay [6] was > 100 µM each time. In addition, the TGI in [7], in [8], in assay [9] and in [10] was > 100 µM each time.
Consider `CC(CC=O)Nc1nn2c(=O)c3ccccc3nc2s1` (centres undefined), for which the TGI in assay [1], in assay [2], in assay [3], in assay [4], in assay [5] and in assay [6] was > 100 µM throughout. Besides, the TGI in assay [7], in [8], in [9] and in assay [10] was > 100 µM throughout.
Consider `COC1OC(C(=O)O)C2OC(C)(C)OC12` (centres undefined), for which the TGI in assay [1], in assay [2], in assay [3], in [4], in assay [5] and in [6] was > 100 µM each time. Further, the TGI in [7], in [8], in [9] and in [10] was > 100 µM in each case.
As to `COc1ccc(C23OCC(Cc4cc(OC)c(OC)cc42)C3CO)cc1OC` (centres undefined), the TGI in [1], in assay [2], in assay [3], in assay [4], in assay [5] and in assay [6] was > 100 µM in each case. In addition, the TGI in [8], in assay [9] and in assay [10] was > 100 µM each time.
`CC(C)=CCCC1(C)C2COC(=O)C21` (centres undefined): the GI50 in [1] was > 100 µM; in assay [4], > 100 µM; in [7] it was 52.8 µM and 19.3 µM. For the same molecule, the TGI was > 100 µM in assay [1]; > 100 µM in [2]; > 100 µM in assay [3]; > 100 µM in assay [4]; > 100 µM in assay [5]; > 100 µM and 39.9 µM in assay [7]. Also, the TGI in assay [8], in [9] and in [10] was > 100 µM each time.
In the case of `O=C(NCc1ccccc1Cl)c1c(O)c2ccccc2[nH]c1=O`, the TGI in [1] was > 100 µM; in [2], > 100 µM; in [3], 63.1 µM; in assay [4], > 100 µM; in [5] it was > 100 µM; in assay [7] it was > 100 µM. For the same molecule, the TGI in assay [8], in [9] and in assay [10] was > 100 µM each time.
